According to article PMC10237672, “Design and synthesis of novel anti-urease imidazothiazole derivatives with promising antibacterial activity against Helicobacter pylori” (PLOS ONE, 2023):
Converted amounts (≈) assume the structure as drawn. “Also recorded” adds a separate entry of the source.

Legend:
[1] = molecular target: T1, urease (Canavalia ensiformis, UniProt P07374); assay: Enzyme kinetics study (Michaelis-Menten, Lineweaver-Burk) of urease inhibition; assay type: biochemical, Jack bean; settings: urea substrate 0.5-2.0 mM, inhibitor 0, 1.5, 3.0, 4.5 μM, Lineweaver-Burk plot
T1 construct: purchased Sigma Aldrich
Procedure: The type of enzyme inhibition was determined by Michaelis-Menten kinetics experiments. In order to investigate the potential mechanism of action of the potent compound 2c, detailed kinetics studies were conducted. The initial inhibitory efficacy rates of enzyme activity were measured at four different concentrations of substrate (0.5, 1.0, 1.5 and 2.0 mM) in the presence or absence of compound 2c (0, 1.5, 3.0, 4.5 μM) against urease.
Kinetics studies were performed to determine the mode of action of compound 2c. The mechanism of inhibition of urease was determined by enzyme kinetics using urea as a substrate. To determine the type of inhibition, analyze the effect of inhibitor on Vmax and Km, a Lineweaver-Burk plot (reciprocal of reaction rates […] and reciprocal of substrate concentrations […]) was used.
Different concentrations of inhibitor 2c and substrate were used to perform kinetics. Four concentrations (0, 1.5, 3.0, 4.5 μM) of inhibitor 2c and four concentrations (0.5, 1.0, 1.5 and 2.0 mM) of substrate were used.

[2] = system: H. pylori; assay: IC50 against H. pylori, micro broth dilution test; assay type: cell-based, Helicobacter pylori; settings: Helicobacter pylori, ATCC43504; H. pylori ATCC 43504, micro broth dilution, 72 h, OD 600 nm; read-out: IC50 value against H. pylori ± SEM
[3] = molecular target: T2, Jack bean urease (Canavalia ensiformis, UniProt P07374); assay: biochemical; assay type: biochemical
T2 construct: purchased Sigma Aldrich
Procedure: Reaction mixture comprising 40 μL of buffer (K2HPO4: 10 mmol/L, urea: 100 mmol/L, […]: 10 mmol/L, EDTA: 1 /L mmol, pH = 8.2) and 5 U/mL enzyme (10 μL) were pre-incubated with 10 μL of synthesized compounds (1 mM) and substrate urea (1 mM) were incubated at room temperature in 96 well plate for half an hour. After the incubation at room temperature, absorbance was taken at specific wavelength (630 nm) employing a microplate reader (Bio-Tek, USA) with R1 and R2 reagents in each well. The reactions were measured in triplicate fashion. To calculate the inhibition percentage following equation was used.
Percentage inhibition = 100 –[tested compound/control compound] × 100.

[4] = system: H. pylori; assay: MIC against H. pylori, agar dilution method; assay type: cell-based, Helicobacter pylori; settings: Helicobacter pylori, ATCC43504; H. pylori ATCC 43504, agar dilution; read-out: MIC value against H. pylori ± SEM

T2 sequence (P07374 whole entry, looked up): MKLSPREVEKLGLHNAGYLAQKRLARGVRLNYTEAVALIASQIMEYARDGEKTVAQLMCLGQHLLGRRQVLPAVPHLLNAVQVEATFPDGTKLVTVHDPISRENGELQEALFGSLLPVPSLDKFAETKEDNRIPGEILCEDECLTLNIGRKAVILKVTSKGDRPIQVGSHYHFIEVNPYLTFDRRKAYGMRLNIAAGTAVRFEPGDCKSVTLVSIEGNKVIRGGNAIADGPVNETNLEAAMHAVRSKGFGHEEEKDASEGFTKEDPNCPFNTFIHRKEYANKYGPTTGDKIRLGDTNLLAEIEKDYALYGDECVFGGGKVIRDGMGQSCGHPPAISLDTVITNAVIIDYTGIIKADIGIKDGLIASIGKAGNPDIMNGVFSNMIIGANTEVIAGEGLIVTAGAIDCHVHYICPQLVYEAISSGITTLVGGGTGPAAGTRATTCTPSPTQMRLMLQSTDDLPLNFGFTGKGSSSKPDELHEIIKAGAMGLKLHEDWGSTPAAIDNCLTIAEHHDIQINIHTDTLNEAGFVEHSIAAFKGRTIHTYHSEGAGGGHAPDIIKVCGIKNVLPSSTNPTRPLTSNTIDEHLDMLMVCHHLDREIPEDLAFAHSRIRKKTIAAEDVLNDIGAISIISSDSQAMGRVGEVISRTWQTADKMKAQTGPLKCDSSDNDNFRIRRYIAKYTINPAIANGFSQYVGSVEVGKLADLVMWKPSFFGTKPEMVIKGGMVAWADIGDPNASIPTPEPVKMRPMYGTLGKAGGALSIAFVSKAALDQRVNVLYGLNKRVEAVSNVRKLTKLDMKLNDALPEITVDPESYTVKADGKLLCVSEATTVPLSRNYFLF
T1 sequence (P07374 whole entry, looked up): as above

CCCS(=O)(=O)Oc1cccc(-c2nc3sccn3c2-c2cccc(S(C)(=O)=O)c2)c1 [Compound 2c, 3-(5-(3-(Methylsulfonyl)phenyl)imidazo[2,1-b]thiazol-6-yl)phenyl propane-1-sulfonate]
type of urease inhibition [1]: competitive inhibition; also recorded: competitive inhibitor | IC50 [2]: 281 ± 21 µM | IC50 [3]: 2.94 ± 0.05 µM | fold more potent than thiourea positive control (urease inhibition) ([3]; ratio of IC50 vs thiourea): 8 fold | MIC [4]: 800 µM (≈ 381 µg/mL) | melting point: 188 to 191 °C
